# Several values for one entry are separate records, joined by “and”; a condition that tells them apart may be missing. Identical values can stand only once.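 Where inhibition never reached the appropriate level, the endpoint shown equals the highest concentration tested. Otherwise, values were interpolated linearly from a five-concentration, 48-hour dose response in 96-well plates. Abbreviation: GI50, concentration required for 50% inhibition of growth. At the TGI there is no net growth.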
# Assays:
# Test in all cases: NCI tumour cell line growth inhibition, 48 h
# LOX IMVI melanoma = system: LOX IMVI melanoma
# MDA-N = system: MDA-N
# NCI-H522 lung = system: NCI-H522 lung
# SK-MEL-2 melanoma = system: SK-MEL-2 melanoma
# SK-MEL-28 melanoma = system: SK-MEL-28 melanoma
# SK-MEL-5 melanoma = system: SK-MEL-5 melanoma
# SW-620 colon = system: SW-620 colon
# TK-10 renal = system: TK-10 renal
# UACC-62 melanoma = system: UACC-62 melanoma
# SR leukemia = system: SR leukemia
SMILES,TGI (LOX IMVI melanoma) [µM],TGI (MDA-N) [µM],TGI (NCI-H522 lung),TGI (SK-MEL-2 melanoma),TGI (SK-MEL-28 melanoma) [µM],TGI (SK-MEL-5 melanoma),TGI (SW-620 colon),TGI (TK-10 renal) [µM],TGI (UACC-62 melanoma),GI50 (MDA-N) [µM],GI50 (NCI-H522 lung) [µM],GI50 (SK-MEL-2 melanoma),GI50 (SW-620 colon) [µM],GI50 (UACC-62 melanoma) [µM],TGI (SR leukemia) [µM]
Cc1ccc(S(=O)(=O)Nn2c(-c3ccccc3)c(C#N)c(-c3ccc([N+](=O)[O-])cc3)c(C#N)c2=O)cc1,> 100,> 100,> 100 µM,> 100 µM,> 100,> 100 µM,> 100 µM,> 100,> 100 µM,–,–,–,–,–,–
COc1cc2c3c(n(CCCNCCO)c(=O)c2cc1OC)-c1cc2c(cc1C3=O)OCO2,0.169,–,0.966 µM and 3.8 µM,5.84 µM and 23.7 µM,–,1.51 µM and 1.56 µM,2.6 µM and 2.03 µM,28.5,0.842 µM and 0.779 µM,2.3,0.0144,2.55 µM and 10.9 µM,0.0228,0.0394,–
c1ccc2c3c(ccc2c1)CSCc1ccc2ccccc2c1-3,> 100,> 100,> 100 µM,> 100 µM,> 100,> 100 µM,–,> 100,> 100 µM,–,–,–,–,–,> 100
O=c1c(Cc2ccc(Cl)cc2)nnc2sc(-c3ccc([N+](=O)[O-])cc3)nn12,> 100,> 100,–,33.7 µM,–,–,80.8 µM,68.4,34 µM,–,–,–,–,–,60.4
O=C1C/C(=C\O)C(=O)c2ccccc2N1,> 100,> 100,> 100 µM,> 100 µM,> 100,> 100 µM,–,> 100,> 100 µM,–,–,–,–,–,> 100
COC(=O)Cc1c(C2=Nc3ccccc3C2(O)CC(=O)OC)[nH]c2ccccc12 (centres undefined),> 100,> 100,> 100 µM,> 100 µM,> 100,> 100 µM,> 100 µM,> 100,> 100 µM,–,–,–,–,–,–
Cc1ccc2ccccc2c1CC1S(=O)(=O)OCCOS1(=O)=O,22.2,22.2,–,37.9 µM,32.8,26.4 µM,–,31.1,–,–,–,–,–,–,24.9
O=C1c2ccccc2S(=O)(=O)c2ccccc21,> 100,> 100,> 100 µM,> 100 µM,> 100,> 100 µM,> 100 µM,> 100,> 100 µM,–,–,–,–,–,–
COc1cc(C2SCC(=O)N2NC(=O)c2ccc(NC(C)=O)cc2)cc(OC)c1OC (centres undefined),–,–,–,> 100 µM,> 100,> 100 µM,> 100 µM,> 100,> 100 µM,–,–,–,–,–,–
CCCCN(CCCC)C(=NCc1ccccc1)NC#N,30.4,–,18.4 µM,39 µM,–,38.9 µM,31 µM,85.2,33.6 µM,–,–,–,–,–,–
[N-]=[N+]=NC1(c2ccccc2)C(=O)Nc2ccccc2C1=O (centres undefined),> 100,> 100,–,67.3 µM,> 100,33.1 µM,82.4 µM,> 100,76.3 µM,–,–,–,–,–,> 100
CC1CN=C(c2cccc(OCc3ccc(COc4cccc(C5=NCC(C)N5)c4)cc3)c2)N1 (centres undefined),62.1,> 100,> 100 µM,79.7 µM,> 100,> 100 µM,> 100 µM,> 100,> 100 µM,–,–,–,–,–,–
CC1=NN(C(=O)CC(=O)Nc2cccc(Cl)c2)C(=O)C1N=Nc1ccc(S(N)(=O)=O)cc1 (centres undefined),> 100,–,> 100 µM,> 100 µM,> 100,> 100 µM,> 100 µM,> 100,> 100 µM,–,–,–,–,–,> 100
CC1=NNC(N)=N/C1=C/C(Sc1ccc(Cl)cc1)c1cccs1 (centres undefined),> 100,85,18.2 µM,27.4 µM,39.7,25.6 µM,41.7 µM,> 100,–,–,–,–,–,–,–
Oc1c2cccc1Cc1cccc3c1OCCOCCOCCOCCOc1c(cccc1Cc1cccc(c1O)C3)C2,> 100,–,> 100 µM,> 100 µM,> 100,> 100 µM,> 100 µM,> 100,> 100 µM,–,–,–,–,–,> 100
O=C1/C(=C/c2ccccc2S)N=C(c2ccccc2)N1c1ccc2c(c1)Sc1cc(N3C(=O)/C(=C/c4ccccc4S)N=C3c3ccccc3)ccc1N2,48.1,51.3,–,44.8 µM,44.5,30.7 µM,41.6 µM,31.3,42.7 µM,–,–,–,–,–,40.4
COc1ccccc1C(=O)c1c(N2CCCCC2)c(=O)c1=O,> 100,> 100,> 100 µM,> 100 µM,> 100,> 100 µM,> 100 µM,> 100,> 100 µM,–,–,–,–,–,–
CCCCCCCCCCCCCCCCOCC(CC(F)(F)P(=O)(O)O)OC(C)=O (centres undefined),–,> 50,> 50 µM,> 50 µM,> 50,> 50 µM,> 50 µM,> 50,> 50 µM,–,–,–,–,–,–
O=C(c1ccccc1F)c1c(NCc2ccccc2)c(=O)c1=O,> 100,> 100,> 100 µM,> 100 µM,> 100,> 100 µM,> 100 µM,> 100,> 100 µM,–,–,–,–,–,–
Cc1ccc(-c2cc(-c3ccc(Cl)cc3)nc(/N=C3\C(=O)N(CN4CCCCC4)c4ccc(Cl)cc43)n2)cc1,53,46.2,27.8 µM,39.3 µM,> 100,48.1 µM,> 100 µM,71.1,> 100 µM,–,–,–,–,–,–
O=C(C[C@@H]1NCCC[C@H]1O)Cn1cnc2cc(Br)c(Cl)cc2c1=O,0.0268,0.0881,0.169 µM,0.05 µM,0.119,0.0473 µM,0.209 µM,–,–,–,–,–,–,–,–
Cc1cccc(NC(=O)CC(=O)N2N=C(N3c4ccccc4Sc4ccccc43)CC2c2ccccc2)c1 (centres undefined),–,–,> 100 µM,> 100 µM,> 100,> 100 µM,> 100 µM,> 100,> 100 µM,–,–,–,–,–,> 100
CC1=NN(c2nc(N)nc(/C(C#N)=C/c3ccncc3)n2)C(C)(C)C1,> 100,–,–,> 100 µM,> 100,> 100 µM,> 100 µM,> 100,> 100 µM,–,–,–,–,–,> 100
O=C(c1cccs1)N(C(=S)N1CCN(c2ccccc2)CC1)c1ccccc1,> 100,–,> 100 µM,> 100 µM,> 100,> 100 µM,> 100 µM,> 100,> 100 µM,–,–,–,–,–,> 100
